ChEMBL document CHEMBL1250443, “Microarray-based method for monitoring yeast overexpression strains reveals small-molecule targets in TOR pathway” (Nat Chem Biol, 2006)

Tests used:
[1] = Inhibition of TOR signaling in wild-type Saccharomyces cerevisiae transformed with overexpression plasmids assessed as decreased RTT101 gene expression by microarray
[2] = Inhibition of TOR signaling in wild-type Saccharomyces cerevisiae transformed with overexpression plasmids assessed as increased VID22 gene expression by microarray
[3] = Inhibition of TOR signaling in wild-type Saccharomyces cerevisiae transformed with overexpression plasmids assessed as increased YFL030W gene expression by microarray
[4] = Inhibition of TOR signaling in wild-type Saccharomyces cerevisiae transformed with overexpression plasmids assessed as decreased YPL260W gene expression by microarray
[5] = Inhibition of TOR signaling in wild-type Saccharomyces cerevisiae transformed with overexpression plasmids assessed as decreased YPT11 gene expression by microarray
Saccharomyces cerevisiae [6] = assay: Increase of HMI1 gene expression in wild-type Saccharomyces cerevisiae transformed with overexpression plasmids by microarray; type: functional
[7] = Inhibition of TOR signaling in wild-type Saccharomyces cerevisiae transformed with overexpression plasmids assessed as decreased YBR284W gene expression by microarray
[8] = Inhibition of TOR signaling in wild-type Saccharomyces cerevisiae transformed with overexpression plasmids assessed as decreased TPO4 gene expression by microarray
[9] = Inhibition of TOR signaling in wild-type Saccharomyces cerevisiae transformed with overexpression plasmids assessed as increased YOR220W gene expression by microarray
[10] = Inhibition of TOR signaling in wild-type Saccharomyces cerevisiae transformed with overexpression plasmids assessed as decreased ELP2 gene expression by microarray
[11] = Inhibition of TOR signaling in wild-type Saccharomyces cerevisiae transformed with overexpression plasmids assessed as decreased HES1 gene expression by microarray
[12] = Inhibition of TOR signaling in wild-type Saccharomyces cerevisiae transformed with overexpression plasmids assessed as decreased YNL058C gene expression by microarray
[13] = Inhibition of TOR signaling in wild-type Saccharomyces cerevisiae transformed with overexpression plasmids assessed as increased NEM1 gene expression by microarray
[14] = Inhibition of TOR signaling in wild-type Saccharomyces cerevisiae transformed with overexpression plasmids assessed as decreased YFL054C gene expression by microarray
[15] = Inhibition of TOR signaling in wild-type Saccharomyces cerevisiae transformed with overexpression plasmids assessed as decreased SHO1 gene expression by microarray
[16] = Inhibition of TOR signaling in wild-type Saccharomyces cerevisiae transformed with overexpression plasmids assessed as increased HCA4 gene expression by microarray
[17] = Inhibition of TOR signaling in wild-type Saccharomyces cerevisiae transformed with overexpression plasmids assessed as decreased ERO1 gene expression by microarray
[18] = Inhibition of TOR signaling in wild-type Saccharomyces cerevisiae transformed with overexpression plasmids assessed as increased IML2 gene expression by microarray
[19] = Inhibition of TOR signaling in wild-type Saccharomyces cerevisiae transformed with overexpression plasmids assessed as decreased HSD1 gene expression by microarray
[20] = Inhibition of TOR signaling in wild-type Saccharomyces cerevisiae transformed with overexpression plasmids assessed as decreased FUS3 gene expression by microarray
[21] = Inhibition of TOR signaling in wild-type Saccharomyces cerevisiae transformed with overexpression plasmids assessed as decreased TUL1 gene expression by microarray
Saccharomyces cerevisiae [22] = assay: Decrease of FET4 gene expression in wild-type Saccharomyces cerevisiae transformed with overexpression plasmids by microarray; type: functional
Saccharomyces cerevisiae [23] = assay: Decrease of YJL051W gene expression in wild-type Saccharomyces cerevisiae transformed with overexpression plasmids by microarray; type: functional
[24] = Inhibition of TOR signaling in wild-type Saccharomyces cerevisiae transformed with overexpression plasmids assessed as increased STM1 gene expression by microarray
[25] = Inhibition of TOR signaling in wild-type Saccharomyces cerevisiae transformed with overexpression plasmids assessed as increased FBP1 gene expression by microarray
[26] = Inhibition of TOR signaling in wild-type Saccharomyces cerevisiae transformed with overexpression plasmids assessed as increased PDR17 gene expression by microarray
[27] = Inhibition of TOR signaling in wild-type Saccharomyces cerevisiae transformed with overexpression plasmids assessed as decreased PRM6 gene expression by microarray
[28] = Inhibition of TOR signaling in wild-type Saccharomyces cerevisiae transformed with overexpression plasmids assessed as increased NAM7 gene expression by microarray
[29] = Inhibition of TOR signaling in wild-type Saccharomyces cerevisiae transformed with overexpression plasmids assessed as increased WHI4 gene expression by microarray
[30] = Inhibition of TOR signaling in wild-type Saccharomyces cerevisiae transformed with overexpression plasmids assessed as decreased YLR224W gene expression by microarray
[31] = Inhibition of TOR signaling in wild-type Saccharomyces cerevisiae transformed with overexpression plasmids assessed as increased SRP72 gene expression by microarray
[32] = Inhibition of TOR signaling in wild-type Saccharomyces cerevisiae transformed with overexpression plasmids assessed as decreased MSB3 gene expression by microarray
[33] = Inhibition of TOR signaling in wild-type Saccharomyces cerevisiae transformed with overexpression plasmids assessed as decreased SUE1 gene expression by microarray
[34] = Inhibition of TOR signaling in wild-type Saccharomyces cerevisiae transformed with overexpression plasmids assessed as decreased YDL186W gene expression by microarray
[35] = Inhibition of TOR signaling in wild-type Saccharomyces cerevisiae transformed with overexpression plasmids assessed as decreased GIS4 gene expression by microarray
[36] = Inhibition of TOR signaling in wild-type Saccharomyces cerevisiae transformed with overexpression plasmids assessed as increased YCL049C gene expression by microarray
Saccharomyces cerevisiae [37] = assay: Increase of GUF1 gene expression in wild-type Saccharomyces cerevisiae transformed with overexpression plasmids by microarray; type: functional
[38] = Inhibition of TOR signaling in wild-type Saccharomyces cerevisiae transformed with overexpression plasmids assessed as decreased YKL059C gene expression by microarray
[39] = Inhibition of TOR signaling in wild-type Saccharomyces cerevisiae transformed with overexpression plasmids assessed as increased PDR3 gene expression by microarray
[40] = Inhibition of TOR signaling in wild-type Saccharomyces cerevisiae transformed with overexpression plasmids assessed as increased BRE1 gene expression by microarray
[41] = Inhibition of TOR signaling in wild-type Saccharomyces cerevisiae transformed with overexpression plasmids assessed as increased SSE1 gene expression by microarray
[42] = Inhibition of TOR signaling in wild-type Saccharomyces cerevisiae transformed with overexpression plasmids assessed as decreased PTC4 gene expression by microarray
[43] = Inhibition of TOR signaling in wild-type Saccharomyces cerevisiae transformed with overexpression plasmids assessed as increased TIF2 gene expression by microarray
[44] = Inhibition of TOR signaling in wild-type Saccharomyces cerevisiae transformed with overexpression plasmids assessed as increased NOP7 gene expression by microarray
[45] = Inhibition of TOR signaling in wild-type Saccharomyces cerevisiae transformed with overexpression plasmids assessed as increased ZDS2 gene expression by microarray

Compound CO[C@H]1C[C@@H]2CC[C@@H](C)[C@@](O)(O2)C(=O)C(=O)N2CCCC[C@H]2C(=O)O[C@H]([C@H](C)C[C@@H]2CC[C@@H](O)[C@H](OC)C2)CC(=O)[C@H](C)/C=C(\C)[C@@H](O)[C@@H](OC)C(=O)[C@H](C)C[C@H](C)/C=C/C=C/C=C/1C [SIROLIMUS] has a fold change (FC) [1] of -3.3, a fold change (FC) [2] of 2.3 and a fold change (FC) [3] of 3.2. For the same compound, the fold change (FC) [4] was -2, the fold change (FC) [5] was -3.1 and the “fold change (FC)” value (Saccharomyces cerevisiae [6]) was -2.3. The fold change (FC) [7] was -3.2, the fold change (FC) [8] was -5.8 and the fold change (FC) [9] was 3.2. It also gave a fold change (FC) [10] of -8.1, a fold change (FC) [11] of -3.1 and a fold change (FC) [12] of -2.1. For the same compound, the fold change (FC) [13] was 2.2, the fold change (FC) [14] was -2.5 and the fold change (FC) [15] was -4.4. It also gave a fold change (FC) [16] of 2.9, a fold change (FC) [17] of -2.3 and a fold change (FC) [18] of 24.4. The fold change (FC) [19] was -4.5, the fold change (FC) [20] was -3.2 and the fold change (FC) [21] was -3.7. For the same compound, the “fold change (FC)” value (Saccharomyces cerevisiae [22]) was -5.1, the “fold change (FC)” value (Saccharomyces cerevisiae [23]) was -2.5 and the fold change (FC) [24] was 5.7. The fold change (FC) [25] was 2.1, the fold change (FC) [26] was 2.9 and the fold change (FC) [27] was -4.4. The fold change (FC) [28] was 6.4, the fold change (FC) [29] was 3.4 and the fold change (FC) [30] was -2.9. It also gave a fold change (FC) [31] of 3.4, a fold change (FC) [32] of -2 and a fold change (FC) [33] of -2. The fold change (FC) [34] was -3.3, the fold change (FC) [35] was -7.2 and the fold change (FC) [36] was 2.1. For the same compound, the “fold change (FC)” value (Saccharomyces cerevisiae [37]) was -3.1, the fold change (FC) [38] was -2.3 and the fold change (FC) [39] was 14.4. It also gave a fold change (FC) [40] of 4.4, a fold change (FC) [41] of 11.4 and a fold change (FC) [42] of -4. The fold change (FC) [43] was 2.6, the fold change (FC) [44] was 2.4 and the fold change (FC) [45] was 13.6.
